This is an account of results in PubChem BioAssay AID330 (DTP/NCI, 2004).

The subject of the assay is P388 leukemia ip, CD2F1 mice, survival T/C. In words: NCI In Vivo Anticancer Drug Screen. Data for tumor model P388 Leukemia (intraperitoneal) in CD2F1 (CDF1) mice. The following applies: endpoint: median survival time, higher = longer survival. Put shortly: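 Mice carrying the transplanted tumor received test compound or vehicle. Survival was recorded in each group, and the value is the treated-group measurement divided by that of the vehicle-treated control group.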

[1] abbreviates: dose: 50.0 mg/kg/injection, schedule: Q01DX005 (ip), vehicle: saline with Tween-80.
[2] abbreviates: dose: 100.0 mg/kg/injection, schedule: Q01DX005 (ip), vehicle: saline with Tween-80.
Setting [3] is: dose: 200.0 mg/kg/injection, schedule: Q01DX005 (ip), vehicle: saline with Tween-80.
The mark [4] stands for this setting: dose: 12.5 mg/kg/injection, schedule: Q01DX009 (ip), vehicle: saline.
Setting [5] is: dose: 25.0 mg/kg/injection, schedule: Q01DX009 (ip), vehicle: saline.
Where [6] appears, read: dose: 60.0 mg/kg/injection, schedule: Q01DX005 (ip), vehicle: saline.
Where [7] appears, read: dose: 120.0 mg/kg/injection, schedule: Q01DX005 (ip), vehicle: saline.
Where [8] appears, read: dose: 240.0 mg/kg/injection, schedule: Q01DX005 (ip), vehicle: saline.
Setting [9] is: dose: 100.0 mg/kg/injection, schedule: Q04DX003 (ip), vehicle: saline with Tween-80.
[10] abbreviates: dose: 200.0 mg/kg/injection, schedule: Q04DX003 (ip), vehicle: saline with Tween-80.
[11] abbreviates: dose: 50.0 mg/kg/injection, schedule: Q01DX009 (ip), vehicle: Klucel (hydroxypropylcellulose) (HPC).

Values joined by “and” are separate entries in the source; they are usually repeats but may differ in a detail not shown here. Identical values can stand only once. Inconclusive results and toxic doses are left out.

Take `Nc1n[n+](-c2ccc3ccccc3c2)no1`: the T/C runs as follows: (dose: 3.13 mg/kg/injection, schedule: Q01DX009 (ip), vehicle: water) 98 % of control; (dose: 6.25 mg/kg/injection, schedule: Q01DX009 (ip), vehicle: water) 109 % of control; (dose: 12.5 mg/kg/injection, schedule: Q01DX009 (ip), vehicle: water) 120 % of control; (dose: 25.0 mg/kg/injection, schedule: Q01DX009 (ip), vehicle: water) 120 % of control.

For `CCN1C(=O)NS(=O)(=O)c2ccccc21`, the T/C is 94 % of control under setting [1], 107 % of control under setting [2] and 97 % of control under setting [3].

`O=C(Nc1cc(Nc2ccc(NC(=O)c3ccccc3)c3c2C(=O)c2ccccc2C3=O)cc2c1C(=O)c1ccccc1C2=O)c1ccccc1`: the T/C reads like this: (dose: 50.0 mg/kg/injection, schedule: Q01DX005 (ip), vehicle: Klucel (hydroxypropylcellulose) (HPC)) 103 % of control; (dose: 100.0 mg/kg/injection, schedule: Q01DX005 (ip), vehicle: Klucel (hydroxypropylcellulose) (HPC)) 103 % of control; (dose: 200.0 mg/kg/injection, schedule: Q01DX005 (ip), vehicle: Klucel (hydroxypropylcellulose) (HPC)) 97 % of control.

For the compound `Cc1cc(OC(=O)Nc2ccc(C(C)C)cc2)c(C)cc1Br`, the T/C reads like this: (dose: 6.25 mg/kg/injection, schedule: Q01DX009 (ip), vehicle: saline) 89 % of control; under setting [4], 92 % of control; under setting [5], 98 % of control; (dose: 100.0 mg/kg/injection, schedule: Q01DX009 (ip), vehicle: saline + alcohol) 98 % of control; (dose: 200.0 mg/kg/injection, schedule: Q01DX009 (ip), vehicle: saline + alcohol) 110 % of control.

Turning to `CNC(=O)N(C)c1nc(-c2ccccc2)c(-c2ccccc2)n1Cc1ccc(Cl)cc1`, the T/C (dose: 50.0 mg/kg/injection, schedule: Q04DX002 (ip), vehicle: saline with Tween-80) was 94 % of control; the T/C (dose: 100.0 mg/kg/injection, schedule: Q04DX002 (ip), vehicle: saline with Tween-80) is 99 % of control; the T/C (dose: 200.0 mg/kg/injection, schedule: Q04DX002 (ip), vehicle: saline with Tween-80) was 92 % of control.

With `CC(C)(C)C1CS1` (stereo not drawn), the T/C is, setting by setting: under setting [1], 107 % of control; under setting [2], 107 % of control; under setting [3], 117 % of control.

`C1CCCc2c(-c3noc4c3CCCCCC4)noc2CC1`: the T/C reads like this: under setting [6], 98 % of control; under setting [7], 99 % of control; under setting [8], 108 % of control.

`Cc1nc2c([N+](=O)[O-])cccc2c2ccccc12`: the T/C (dose: 100.0 mg/kg/injection, schedule: Q04DX002 (ip), vehicle: Klucel (hydroxypropylcellulose) (HPC)) was 94 % of control; the T/C (dose: 200.0 mg/kg/injection, schedule: Q04DX002 (ip), vehicle: Klucel (hydroxypropylcellulose) (HPC)) is 89 % of control; the T/C (dose: 400.0 mg/kg/injection, schedule: Q04DX002 (ip), vehicle: Klucel (hydroxypropylcellulose) (HPC)) is 98 % of control.

With `Cc1cccc(C)c1NC(=S)N1CCC(CCCC2CCN(C(=S)Nc3c(C)cccc3C)CC2)CC1`, the T/C is, setting by setting: under setting [9], 86 % of control; under setting [10], 86 % of control.

As for `Cc1cc2cc(CN3C(=O)c4ccccc4C3=O)ccc2[nH]1`, the T/C (dose: 100.0 mg/kg/injection, schedule: Q01DX001 (ip), vehicle: Klucel (hydroxypropylcellulose) (HPC)) was 100 % of control; the T/C (dose: 200.0 mg/kg/injection, schedule: Q01DX001 (ip), vehicle: Klucel (hydroxypropylcellulose) (HPC)) was 93 % of control; the T/C (dose: 400.0 mg/kg/injection, schedule: Q01DX001 (ip), vehicle: Klucel (hydroxypropylcellulose) (HPC)) is 93 % of control.

As to `COc1cc2c(cc1OCc1ccccc1)C(Cc1cc(Br)sc1Br)N(C(C)=O)CC2` (stereo not drawn), the T/C (dose: 63.0 mg/kg/injection, schedule: Q01DX001 (ip), vehicle: Klucel (hydroxypropylcellulose) (HPC)) was 97 % of control; the T/C (dose: 126.0 mg/kg/injection, schedule: Q01DX001 (ip), vehicle: Klucel (hydroxypropylcellulose) (HPC)) is 101 % of control; the T/C (dose: 252.0 mg/kg/injection, schedule: Q01DX001 (ip), vehicle: Klucel (hydroxypropylcellulose) (HPC)) was 109 % of control.

On to `CCC(O)c1ccco1` (stereo not drawn), for which the T/C is, setting by setting: (dose: 12.5 mg/kg/injection, schedule: Q01DX005 (ip), vehicle: saline with Tween-80) 109 % of control; (dose: 25.0 mg/kg/injection, schedule: Q01DX005 (ip), vehicle: saline with Tween-80) 100 % of control; under setting [1], 111 % of control and 112 % of control.

With `CCOC(=O)NC(=O)CCC(=O)Nc1ccc2ccccc2c1`, the T/C was 97 % of control under setting [9]; 95 % of control under setting [10]; 96 % of control (dose: 400.0 mg/kg/injection, schedule: Q04DX003 (ip), vehicle: saline with Tween-80).

In the case of `CC1=CC(=Nc2ccc(N(CCCl)CCCl)cc2)C=C(C)C1=O`, the T/C is 105 % of control (dose: 3.12 mg/kg/injection, schedule: Q01DX009 (ip), vehicle: Klucel (hydroxypropylcellulose) (HPC)); 186 % of control (dose: 12.5 mg/kg/injection, schedule: Q01DX009 (ip), vehicle: Klucel (hydroxypropylcellulose) (HPC)); 153 % of control (dose: 12.5 mg/kg/injection, schedule: Q01DX009 (ip), vehicle: other); 104 % of control and 118 % of control under setting [4]; 173 % of control and 186 % of control (dose: 25.0 mg/kg/injection, schedule: Q01DX009 (ip), vehicle: Klucel (hydroxypropylcellulose) (HPC)); 235 % of control (dose: 25.0 mg/kg/injection, schedule: Q01DX009 (ip), vehicle: other). The T/C under setting [5] was 114 % of control; the T/C under setting [11] was 170 % of control and 186 % of control; the T/C (dose: 50.0 mg/kg/injection, schedule: Q01DX009 (ip), vehicle: other) was 91 % of control; the T/C (dose: 50.0 mg/kg/injection, schedule: Q01DX009 (ip), vehicle: saline) is 157 % of control; the T/C (dose: 100.0 mg/kg/injection, schedule: Q01DX009 (ip), vehicle: saline) was 166 % of control.

Regarding `N=C(Oc1ccccc1[N+](=O)[O-])c1ccccc1`, the T/C reads like this: (dose: 50.0 mg/kg/injection, schedule: Q01DX009 (ip), vehicle: saline with Tween-80) 90 % of control and 94 % of control; (dose: 100.0 mg/kg/injection, schedule: Q01DX009 (ip), vehicle: saline with Tween-80) 100 % of control and 95 % of control; (dose: 200.0 mg/kg/injection, schedule: Q01DX009 (ip), vehicle: saline with Tween-80) 102 % of control and 93 % of control; (dose: 400.0 mg/kg/injection, schedule: Q01DX009 (ip), vehicle: saline with Tween-80) 88 % of control.

With `COc1ccc(-c2cnc3[nH]c(=O)[nH]c(=O)c3n2)cc1`, the T/C by setting is: (dose: 100.0 mg/kg/injection, schedule: Q01DX001 (ip), vehicle: saline) 100 % of control; (dose: 200.0 mg/kg/injection, schedule: Q01DX001 (ip), vehicle: saline) 97 % of control; (dose: 400.0 mg/kg/injection, schedule: Q01DX001 (ip), vehicle: saline) 90 % of control.

As for `CCOC(=O)CC1(O)C=C(C)C(=O)C(C)=C1`, the T/C is 100 % of control (dose: 3.13 mg/kg/injection, schedule: Q01DX009 (ip), vehicle: distilled water + Tween-80); 109 % of control (dose: 6.25 mg/kg/injection, schedule: Q01DX009 (ip), vehicle: distilled water + Tween-80); 103 % of control (dose: 12.5 mg/kg/injection, schedule: Q01DX009 (ip), vehicle: distilled water + Tween-80); 98 % of control (dose: 25.0 mg/kg/injection, schedule: Q01DX009 (ip), vehicle: distilled water + Tween-80); 107 % of control (dose: 50.0 mg/kg/injection, schedule: Q01DX009 (ip), vehicle: distilled water + Tween-80); 99 % of control (dose: 100.0 mg/kg/injection, schedule: Q01DX009 (ip), vehicle: distilled water + Tween-80). Further, the T/C is, setting by setting: (dose: 200.0 mg/kg/injection, schedule: Q01DX009 (ip), vehicle: distilled water + Tween-80) 112 % of control; (dose: 400.0 mg/kg/injection, schedule: Q01DX009 (ip), vehicle: distilled water + Tween-80) 108 % of control.

For `COC1CC(N=S(=O)(O)c2ccc(N)cc2)[N-]C(OC)N1.[Ag+]` (stereo not drawn), the T/C was 97 % of control under setting [11]; 93 % of control (dose: 100.0 mg/kg/injection, schedule: Q01DX009 (ip), vehicle: Klucel (hydroxypropylcellulose) (HPC)); 102 % of control (dose: 200.0 mg/kg/injection, schedule: Q01DX009 (ip), vehicle: Klucel (hydroxypropylcellulose) (HPC)).

In the case of `Cc1cc(-c2cc(C)on2)no1`, the T/C is 103 % of control under setting [6], 103 % of control under setting [7] and 103 % of control under setting [8].
